Assay results: PubChem BioAssay (NCI)
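48-hour exposure; five concentrations; linearly interpolated endpoints. GI50 = concentration required for 50% inhibition of growth. TGI denotes the concentration required for complete inhibition of growth.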

Legend:
Assay in all cases: inhibition of tumour cell growth, NCI panel, 48 h
[1] = system: ACHN renal
[2] = system: BT-549 breast
[3] = system: COLO 205 colon
[4] = system: HL-60(TB) leukemia
[5] = system: HOP-62 NSCLC
[6] = system: K-562 leukemia
[7] = system: SK-MEL-2 melanoma
[8] = system: SNB-19 CNS
[9] = system: SR leukemia
[10] = system: UACC-62 melanoma

SMILES | GI50 [1] | TGI [1] | GI50 [2] | TGI [2] | GI50 [3] [µM] | TGI [3] [µM] | GI50 [4] | TGI [4] | GI50 [5] | TGI [5] | GI50 [6] | TGI [6] | GI50 [7] | TGI [7] | GI50 [8] | TGI [8] | GI50 [9] | TGI [9] | GI50 [10] | TGI [10]
OB1OCc2cc(/C=C/c3cccc(C(F)(F)F)c3)ccc21 | 0.332 µM | 1.34 µM | 2.26 µM | > 100 µM | 2.31 | > 100 | 0.298 µM | 5.38 µM | 0.483 µM | 17.4 µM | 0.93 µM | 24.2 µM | 46.1 µM | > 100 µM | 0.765 µM | 48.7 µM | 0.318 µM | 11.6 µM | 0.551 µM | 63.4 µM
Cn1c2ccccc2c2c(=O)c3ccccc3[nH]c21 | 31.1 µM | > 100 µM | 73.3 µM | > 100 µM | 55.8 | > 100 | 70.6 µM | > 100 µM | 38.9 µM | > 100 µM | > 100 µM | > 100 µM | > 100 µM | > 100 µM | 43.9 µM | > 100 µM | > 100 µM | > 100 µM | 69.7 µM | > 100 µM
NC(=O)c1cccc(Nc2nccc(Nc3cccc(F)c3)n2)c1 | 8.83 µM | > 25 µM | 10.3 µM | > 25 µM | 6.73 | > 17.9 | 7.52 µM | 20.5 µM | 8.24 µM | > 22.5 µM | 8.13 µM | > 25 µM | 7.37 µM | 24.4 µM | 18.6 µM | > 25 µM | 7.1 µM | > 25 µM | 5.66 µM | 24.6 µM
CCN(CC)CCNC(=O)c1cn2ncnc(Oc3ccc(NC(=O)Nc4ccc(Cl)c(C(F)(F)F)c4)c(F)c3)c2c1C | 1.68 µM | 3.04 µM | 1.86 µM | 3.48 µM | 1.44 | 3.16 |  |  | 1.88 µM | 3.72 µM | 0.442 µM | 2.28 µM | 1.61 µM | 3.3 µM | 1.95 µM | 3.5 µM | 0.343 µM | 1.09 µM | 1.68 µM | 3.15 µM
CCCCCCCCCCN=C(c1ccc(N(C)C)cc1)c1ccc(N(C)C)cc1 | 2.47 µM | > 73.9 µM | 0.857 µM | 52.9 µM | 0.933 | 15.7 | 0.954 µM | 18.9 µM | 1.06 µM | 31.8 µM | 0.207 µM | > 100 µM | 0.492 µM | 33.2 µM | 1.06 µM | > 76 µM | 0.211 µM | > 46.8 µM | 0.508 µM | > 38.4 µM
CCCCCCCCCCCCCCCCCCNC(=O)[C@H]1CSC(c2cccs2)N1 (some centres undefined) | 30.9 µM | > 50 µM | 0.983 µM | 1.89 µM | > 50 | > 50 | 0.919 µM | 2.06 µM | 0.959 µM | 1.71 µM | 0.761 µM | 2.14 µM | 0.957 µM | 1.79 µM | 3.6 µM | > 50 µM | 0.94 µM | 2.62 µM | 0.908 µM | 1.69 µM
OC(CN1CC1)C(O)CN1CC1 (centres undefined) | > 50 µg/mL | > 50 µg/mL | > 50 µg/mL | > 50 µg/mL |  |  | > 50 µg/mL | > 50 µg/mL | > 50 µg/mL | > 50 µg/mL | > 50 µg/mL | > 50 µg/mL | > 50 µg/mL | > 50 µg/mL | > 50 µg/mL | > 50 µg/mL | > 50 µg/mL | > 50 µg/mL | > 50 µg/mL | > 50 µg/mL
CC1(C)N=C(N)N=C(N)N1c1ccc(OCC(=O)Nc2ccccc2)c(Cl)c1 | 62.9 µM | > 100 µM | 22.3 µM | > 100 µM | 18.3 | > 100 | 0.922 µM | > 100 µM | 5.77 µM | > 100 µM | 0.446 µM | > 100 µM | > 93.9 µM | > 100 µM | 28.8 µM | > 100 µM | 0.515 µM | > 51.6 µM | 0.569 µM | > 100 µM
COc1ccc(CC(C)C(C)Cc2ccc(OC)c(OC)c2)cc1OC (centres undefined) | > 1400 µM | > 1400 µM | > 1400 µM | > 1400 µM | > 1400 | > 1400 | > 1400 µM | > 1400 µM | 750 µM | > 1400 µM | > 1400 µM | > 1400 µM | > 1400 µM | > 1400 µM | > 1400 µM | > 1400 µM | 915 µM | > 1400 µM | 1130 µM | > 1400 µM
Cc1ccccc1Nc1nc2c(s1)C(=O)c1ccccc1C2=O |  | 14.6 µM |  | 6.57 µM |  | 34.7 |  | > 100 µM |  | 30.2 µM |  | > 36.2 µM |  | 31.5 µM |  | 13.2 µM |  | 11.4 µM |  | 10.3 µM
Cc1cc(Nc2nc(SCc3ccc(C(=O)Nc4ccc(F)cc4N)cc3)nn3cccc23)n[nH]1 | 1.24 µM | 13 µM | 0.296 µM | 7 µM |  |  | 0.268 µM | 0.785 µM | 0.556 µM | > 100 µM | 0.0487 µM | > 100 µM | 0.617 µM | 6.01 µM | 0.536 µM | > 100 µM | 0.068 µM | 63.1 µM | 0.347 µM | 21.6 µM
C=C(CN1CCc2ccccc2C1)c1ccc(C(=O)Nc2ccccc2N)cc1 | 1.01 µM | 3.5 µM | 1.69 µM | 6.16 µM | 1.52 | 7.4 | 3.18 µM | > 12.3 µM | 1 µM | 17 µM | 2.32 µM | > 11.3 µM | 3.16 µM | 19.1 µM | 2.39 µM | > 50 µM | 0.484 µM | > 50 µM | 0.821 µM | 3.3 µM
CCCCCCCCCCCC[n+]1ccccc1 (tested in a mixture with another compound) | 2.25 µM | 14.1 µM | 0.268 µM | 1.06 µM | 0.404 | 1.52 | 0.253 µM | 1.04 µM | 1.15 µM | 3.59 µM | 0.392 µM | 11 µM | 1.76 µM | 5.52 µM | 1.29 µM | 3.48 µM | 0.156 µM | 3.11 µM | 1.09 µM | 2.54 µM
COc1ccc(/C=C2/CCc3cc4ccc(OC)cc4[o+]c32)c(O)c1 | 4.15 µM | 15.8 µM | 12.1 µM | 31.7 µM | 2.59 | 10.7 | 4.96 µM | 61.4 µM | 13.1 µM | 28 µM | 11.4 µM | 93.8 µM | 11.8 µM | 25.3 µM | 8.48 µM | 25.6 µM | 3.04 µM | 45.6 µM | 5.2 µM | 19.9 µM
O=C1C(Cl)=C(Nc2ccccc2)C(=O)c2ccccc21 | 1.63 µM | 3.13 µM | 1.7 µM | 3.09 µM | 1.88 | 3.77 | 1.77 µM | 5.31 µM | 12.8 µM | 26.8 µM | 0.648 µM | > 100 µM | 1.87 µM | 3.69 µM | 2.22 µM | 5.07 µM | 0.992 µM | > 100 µM | 1.72 µM | 3.3 µM
CN(C)Cc1c[nH]c2c(NCCN)c3c(c(NCCN)c12)C(=O)c1ccccc1C3=O | 2.12 µM | 9.04 µM | 3.52 µM | 9.87 µM | 7.36 |  |  |  | 1.31 µM | 6.39 µM | 0.516 µM | > 100 µM | 2.41 µM | 8.27 µM | 6.52 µM | 23 µM |  | > 100 µM | 1.44 µM | 4.18 µM
Cc1cc2c(Br)cc(Br)c(O)c2nc1C(=O)c1ccccc1 |  | > 100 µM |  | > 100 µM |  | 55.7 |  | 8.11 µM |  | > 31.6 µM |  | 52.1 µM |  | 97.2 µM |  | > 100 µM |  | > 100 µM |  | 15.3 µM
C=CCO/N=C/c1cc(NC(=S)c2ccoc2C)ccc1Cl |  | 19.4 µM |  | 34.7 µM |  | 27.5 |  | 46 µM |  | 29.5 µM |  |  |  | 28 µM |  | 21.2 µM |  | 30.9 µM |  | 35.5 µM
C=C1CC2(OC1=O)C(=O)N(CCCN1C(=O)C3(CC(=C)C(=O)O3)c3ccccc31)c1ccccc12 (centres undefined) | 1.15 µM | 2.36 µM | 2.69 µM | 9.65 µM | 0.52 | 2.03 | 0.831 µM | 2.85 µM | 7.34 µM | 21.8 µM | 0.385 µM | 2.07 µM | 10.4 µM | 32.3 µM | 13.3 µM | 26.2 µM | 0.33 µM | 1.35 µM | 1.54 µM | 3.11 µM
Cc1ncc(C(=O)Nc2ccc(CN3CCN(C)CC3)c(C(F)(F)F)c2)cc1C#Cc1cnc(NC2CC2)c2ncccc12 | 0.577 µM | 1.04 µM | 4.28 µM | 8.56 µM | 1.36 | 4.51 | 0.67 µM | 1.47 µM | 1.41 µM | 3.06 µM | 0.0211 µM | 0.476 µM | 1.66 µM | 5.54 µM | 0.713 µM | 1.32 µM | 0.493 µM | 1.27 µM | 0.874 µM | 2.38 µM
CCSc1nc(N)c2cn[nH]c2n1 | 31.3 µM | > 100 µM | 52.1 µM | > 100 µM | 23.5 | 53.9 |  |  | 49 µM | > 100 µM | 37.3 µM | > 100 µM | 47.3 µM | > 100 µM | 39.2 µM | > 100 µM | 7.63 µM | 39.6 µM | 18 µM | 38.9 µM
O=C(/C=C/c1ccccc1)CC(c1ccccc1)N1CCOCC1 (centres undefined) | 2.03 µM | 4.4 µM | 1.86 µM | 3.62 µM | 2.45 | 5.64 | 3.68 µM | 18.1 µM | 3.25 µM | 11.9 µM | 3.4 µM | 21.8 µM | 26.5 µM | 66.9 µM | 9.8 µM | 21.9 µM | 2.71 µM | 8.92 µM | 9.07 µM | 21.8 µM
CC1CCCc2c1nn(C(=O)/C=C(\N)c1ccccc1)c2N (centres undefined) | 9.94 µM | > 100 µM | 24.3 µM | 93.7 µM | 10.1 | 79.1 | 5.96 µM | 44.3 µM | 8.49 µM | > 100 µM | 4.99 µM | > 100 µM | 34.8 µM | > 100 µM | 25.2 µM | > 100 µM |  |  | 9.45 µM | 41.5 µM
COc1ccc(-c2nnc(N3CCN(C(=O)CN4CCN(c5ccc(OC)cc5)CC4)CC3)nc2-c2ccc(OC)cc2)cc1 | 18.1 µM | 50.8 µM | 3.53 µM | 24 µM | 6.36 | 29.7 | 1.88 µM | 6.5 µM | 16.5 µM | 44 µM | 2.14 µM | 4.44 µM | 10.2 µM | 44.1 µM | 20.7 µM | 46.4 µM | 2.1 µM | 4.04 µM | 12.1 µM | 53.1 µM
Cn1c([N+](=O)[O-])cnc1/C=C1\Oc2cc(Cl)ccc2C1=O | 0.209 µM |  | 0.996 µM | 4.9 µM | 0.742 | 3.59 | 0.421 µM | 5.04 µM | 1.88 µM | 6.07 µM | 1.36 µM | 21 µM | 0.436 µM | 2 µM | 1.64 µM | 6.21 µM | 0.0393 µM | 0.344 µM |  | 
C=CCSc1nc2ccccc2c(=O)n1Cc1ccco1 |  | > 100 µM |  | > 100 µM |  | > 100 |  |  |  | > 100 µM |  | > 100 µM |  | > 100 µM |  | > 100 µM |  | > 100 µM |  | > 100 µM
O=C(O)CCC(NC(=S)S)C(=O)O.[Na+].[Zn+2] (centres undefined) | > 50 µM | > 50 µM | > 50 µM | > 50 µM | > 50 | > 50 | > 50 µM | > 50 µM | > 50 µM | > 50 µM | > 50 µM | > 50 µM | > 50 µM | > 50 µM | > 50 µM | > 50 µM |  |  | > 50 µM | > 50 µM
